For 19 molecules, pest or weed control results are on record in US20150344466A1 (SUMITOMO CHEMICAL COMPANY, LIMITED, priority 2013, published 2015).

What all share (assay type): in vivo
Assay [1] deals with Blattella germanica. Nature of the assay: Knockdown spray test on Blattella germanica, 2.0% w/v oil formulation (Test Example 1). The conditions noted are these: topical, 0.25 h, active ingredient 2.0% w/v, 1.5 ml sprayed, within 15 minutes, read-out: knockdown rate of the test insects within 15 minutes. The procedure:
Ten Blattella germanica (5 males and 5 females) were released in a test container (8.75 cm in diameter, 7.5 cm in height, and the bottom made of 16 mesh metallic wire) with the inner wall on which butter was applied, and the container was placed on the bottom of a test chamber (bottom: 46 cm×46 cm, height: 70 cm). From a height of 60 cm above the upper surface of the container, 1.5 ml of the test drug solution was sprayed using a spray gun (a spraying pressure of 0.42 kg/cm^2). Thirty seconds after spraying, the container was taken out from the test chamber, and after 2 minutes, 5 minutes and 15 minutes, the number of knocked-down insects was counted to obtain a knockdown rate. The knockdown rate was calculated by the following equation.
(§1) Knockdown Rate (%)=(Number of Knocked-down Insects/Number of Tested Insects)×100

For assay [2], the system named is Musca domestica. Kind of assay: Knockdown spray test on adult Musca domestica (Test Example 3). The conditions noted are these: topical, 0.25 h, active ingredient 2.0% w/v, 0.5 ml sprayed, within 15 minutes, read-out: knockdown rate of the test insects within 15 minutes. The procedure:
Ten adult Musca domestica (five males and five females) were released in a polyethylene cup (bottom diameter: 10.6 cm), and the cup was covered with a 16-mesh nylon gauze. The polyethylene cup was placed on the bottom of a test chamber (bottom: 46 cm×46 cm, height: 70 cm). From a height of 30 cm above the upper surface of the polyethylene cup, 0.5 ml of the test drug solution was sprayed using a spray gun (a spraying pressure of 0.9 kg/cm^2). Immediately after spraying, the cup was taken out from the test chamber, and after 2 minutes, 5 minutes and 15 minutes, the number of knocked-down insects was counted to obtain a knockdown rate. The knockdown rate was calculated by the following equation.
as §1

Assay [3] concerns Culex pipiens pallens. Nature of the assay: Knockdown spray test on adult Culex pipiens pallens (Test Example 4). The conditions noted are these: topical, 0.25 h, active ingredient 0.1% w/v, 0.5 ml sprayed, within 15 minutes, read-out: knockdown rate of the test insects within 15 minutes. The method, boiled down:
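Knockdown counts were taken 2, 5 and 15 min after spraying and expressed as percent of the 10 adults tested. For the spray, 0.5 ml of solution was applied by spray gun (0.4 kg/cm^2) from 30 cm above a gauze-covered cup in a test chamber; the cup was taken out right after spraying.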

For another assay, the system named is Plutella xylostella. Nature of the assay: Foliar spray test on Plutella xylostella on cabbage (Test Example 10). The conditions noted are these: 120 h, third instar larvae of Plutella xylostella on cabbage, 500 ppm spray 20 ml/cup, after five days, read-out: controlling value. How it is done:
On the other hand, cabbage was planted in a polyethylene cup, and grown until the third-fourth true leaf was spread. The test spray solution was sprayed to the cabbage at a ratio of 20 ml/cup. After the drug solution sprayed on the cabbage was dried, 10 third instar larvae of Plutella xylostella were allowed to parasitize the cabbage. After five days, the number of Plutella xylostella was investigated, and the controlling value was calculated according to the following standard. Controlling value (%)={1−(Cb×Tai)/(Cai×Tb)}×100 In the equation, the symbols represent as follows. Cb: the number of insects in a non-treated section before treatment Cai: the number of insects in a non-treated section on observation Tb: the number of insects in a treated section before treatment Tai: the number of insects in a treated section on observation

Assay [4] deals with Musca domestica. Kind of assay: Filter paper/sucrose bait death rate test on Musca domestica (Test Example 5). The conditions noted are these: female imagoes of Musca domestica, 0.7 ml on filter paper, after 24 hours. The method, boiled down:
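Ten female imagoes were confined in a sealed cup over a filter paper treated with 0.7 ml of test solution and 30 mg sucrose bait. Mortality was scored at 24 h and expressed as percent of tested insects killed.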

In assay [5] the test system is Blattella germanica. Nature of the assay: Knockdown spray test on Blattella germanica, 0.1% w/v oil formulation (Test Example 2). The conditions noted are these: topical, 0.25 h, active ingredient 0.1% w/v, 1.5 ml sprayed, within 15 minutes, read-out: knockdown rate of the test insects within 15 minutes. The method, boiled down: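 Ten German cockroaches (5 males, 5 females) in a mesh-bottomed, butter-walled container were sprayed with 1.5 ml test solution from 60 cm at 0.42 kg/cm^2 inside a chamber.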

Assay [6] deals with Culex pipiens pallens. Kind of assay: Larvicidal test on Culex pipiens pallens, eight days (Test Example 7). The conditions noted are these: 192 h; last-instar larvae of Culex pipiens pallens; 3.5 ppm in water; eight days later; read-out: death rate. How it is done: 20 last-instar larvae of Culex pipiens pallens were released into a liquid to which 0.7 ml of the above test drug solution was added to 100 ml of ion-exchanged water (a concentration of the active ingredient of 3.5 ppm). Eight days later, the life and death of the Culex pipiens pallens was examined, and the death rate was calculated. The death rate was calculated by the following equation.
Death rate (%)=(Number of dead insects/Number of tested insects)×100

Consider `O=C(NCC1CCOC1)c1cc(COCc2ccccc2)on1` (stereo not drawn) [(13), N-(tetrahydrofuran-3-ylmethyl)-5-benzyloxymethylisoxazole-3-carboxamide], for which the pest or weed control at 2 % strength with Blattella germanica [1] and in the assay with Musca domestica [2] was at least 80% throughout. Also, the pest or weed control at 0.1 % strength in the assay with Culex pipiens pallens [3] was at least 80%. Further, in the assay with Plutella xylostella, the pest or weed control at 500 ppm is at least 90%.
For `O=C(NCC1CCOCC1)c1cc(COCc2ccccc2)on1` [(15), N-(tetrahydropyran-4-ylmethyl)-5-benzyloxymethylisoxazole-3-carboxamide], the pest or weed control at 2 % strength in the assay with Blattella germanica [1] and in the assay with Musca domestica [2] was at least 80% throughout. In addition, in the assay on Culex pipiens pallens [3], the pest or weed control at 0.1 % strength is at least 80%. In the assay with Plutella xylostella, the pest or weed control at 500 ppm is at least 90%.
With `O=C(NCC1CCOC1)c1cc(CCCc2ccccc2)on1` (stereo not drawn) [(22), N-(tetrahydrofuran-3-ylmethyl)-5-(3-phenylpropyl)isoxazole-3-carboxamide], the pest or weed control at 2 % strength in the assay with Blattella germanica [1] and with Musca domestica [2] was at least 80% throughout. Further, the pest or weed control at 0.1 % strength in the assay with Culex pipiens pallens [3] is at least 80%. Moreover, the pest or weed control at 500 ppm with Musca domestica [4] is at least 90%.
With `O=C(NCC1CCOC1)c1cc(Cc2ccccc2)on1` (stereo not drawn) [(26), N-(tetrahydrofuran-3-ylmethyl)-5-benzylisoxazole-3-carboxamide], the pest or weed control at 2 % strength in the assay on Blattella germanica [1] and with Musca domestica [2] was at least 80% in each case. For the same molecule, the pest or weed control at 0.1 % strength with Culex pipiens pallens [3] was at least 80%. The pest or weed control at 500 ppm in the assay on Musca domestica [4] was at least 90%.
Take `O=C(NCC1CCOC1)c1cc(COCc2ccc(Cl)cc2)on1` (stereo not drawn) [(70), N-(tetrahydrofuran-3-ylmethyl)-5-(4-chlorobenzyloxymethyl)isoxazole-3-carboxamide]: the pest or weed control at 0.1 % strength in the assay with Blattella germanica [5] and with Culex pipiens pallens [3] was at least 80% each time. The pest or weed control at 3.5 ppm in the assay with Culex pipiens pallens [6] was at least 90%. In addition, in the assay on Plutella xylostella, the pest or weed control at 500 ppm was at least 90%.
With `O=C(NCC1CCOC1)c1cc(COCc2cccc(OC(F)(F)F)c2)on1` (stereo not drawn) [(78), N-(tetrahydrofuran-3-ylmethyl)-5-(3-trifluoromethoxybenzyloxymethyl)isoxazole-3-carboxamide], the pest or weed control at 0.1 % strength in the assay with Blattella germanica [5] and with Culex pipiens pallens [3] was at least 80% in each case. Moreover, in the assay on Culex pipiens pallens [6], the pest or weed control at 3.5 ppm is at least 90%.
For the molecule `O=C(NCC1CCOCC1)c1cc(COCc2ccc(SC(F)(F)F)cc2)on1` [(96), N-(tetrahydropyran-4-ylmethyl)-5-(4-trifluoromethylthiobenzyloxymethyl)isoxazole-3-carboxamide], in the assay with Culex pipiens pallens [3], the pest or weed control at 0.1 % strength is at least 80%. Further, the pest or weed control at 3.5 ppm in the assay with Culex pipiens pallens [6] was at least 90%.
In the case of `O=C(NCC1CCOC1)c1cc(COCC2CCc3ccccc3C2)on1` (stereo not drawn) [(118), N-(tetrahydrofuran-3-ylmethyl)-5-(1,2,3,4-tetrahydronaphthalen-2-ylmethoxymethyl)isoxazole-3-carboxamide], the pest or weed control at 2 % strength with Blattella germanica [1] and in the assay with Musca domestica [2] was at least 80% each time. Further, the pest or weed control at 0.1 % strength with Culex pipiens pallens [3] is at least 80%. The pest or weed control at 500 ppm in the assay on Plutella xylostella was at least 90%.
For the molecule `O=C(NCC1CCOC1)c1cc(CCCOCc2ccccc2)on1` (stereo not drawn) [(139), N-(tetrahydrofuran-3-ylmethyl)-5-(3-benzyloxypropyl)isoxazole-3-carboxamide], the pest or weed control at 2 % strength in the assay on Blattella germanica [1] and with Musca domestica [2] was at least 80% in each case. The pest or weed control at 0.1 % strength in the assay with Culex pipiens pallens [3] is at least 80%.
For the molecule `O=C(NCC1CCOC1)c1cc(CCCCOCc2ccccc2)on1` (stereo not drawn) [(140), N-(tetrahydrofuran-3-ylmethyl)-5-(4-benzyloxybutyl)isoxazole-3-carboxamide], the pest or weed control at 2 % strength with Blattella germanica [1] and with Musca domestica [2] was at least 80% in each case. Also, in the assay with Culex pipiens pallens [3], the pest or weed control at 0.1 % strength is at least 80%.
For `O=C(NCC1CCOC1)c1cc(CCCCCOCc2ccccc2)on1` (stereo not drawn) [(141), N-(tetrahydrofuran-3-ylmethyl)-5-(5-benzyloxypentyl)isoxazole-3-carboxamide], the pest or weed control at 2 % strength in the assay on Blattella germanica [1] and with Musca domestica [2] was at least 80% each time. Moreover, the pest or weed control at 0.1 % strength in the assay on Culex pipiens pallens [3] is at least 80%.
As to `O=C(NCC1CCOC1)c1cc(CCCCCCOCc2ccccc2)on1` (stereo not drawn) [(143), N-(tetrahydrofuran-3-ylmethyl)-5-(6-benzyloxyhexyl)isoxazole-3-carboxamide], the pest or weed control at 2 % strength in the assay with Blattella germanica [1] and with Musca domestica [2] was at least 80% each time. In addition, the pest or weed control at 0.1 % strength with Culex pipiens pallens [3] is at least 80%.
`O=C(NCC1CCOC1)c1cc(Cc2cccc(C(F)(F)F)c2)on1` (stereo not drawn) [(158), N-(tetrahydrofuran-3-ylmethyl)-5-(3-trifluoromethylbenzyl)isoxazole-3-carboxamide]: the pest or weed control at 2 % strength with Blattella germanica [1] and in the assay with Musca domestica [2] was at least 80% each time. For the same molecule, the pest or weed control at 0.1 % strength with Culex pipiens pallens [3] is at least 80%.
On to `COC(=O)c1c(C(=O)NCC2CCOC2)noc1COCc1ccccc1` (stereo not drawn) [(167), N-(tetrahydrofuran-3-ylmethyl)-(5-benzyloxymethyl-4-methoxycarbonyl)isoxazole-3-carboxamide], for which the pest or weed control at 3.5 ppm with Culex pipiens pallens [6] is at least 90%.
On to `O=C(NCC1CCOCC1)c1cc(COc2cccc(C(F)(F)F)c2)on1` [(199), N-(tetrahydropyran-4-ylmethyl)-5-(3-trifluoromethylphenoxymethyl)isoxazole-3-carboxamide], for which the pest or weed control at 0.1 % strength in the assay on Culex pipiens pallens [3] is at least 80%. Further, the pest or weed control at 3.5 ppm with Culex pipiens pallens [6] is at least 90%.
With `O=C(NCC1CCOC1)c1cc(COCC#Cc2ccccc2)on1` (stereo not drawn) [(240), N-(tetrahydrofuran-3-ylmethyl)-5-(3-phenyl-2-propionyl)oxymethylisoxazole-3-carboxamide], the pest or weed control at 2 % strength with Blattella germanica [1] and in the assay on Musca domestica [2] was at least 80% in each case. Further, the pest or weed control at 0.1 % strength in the assay with Blattella germanica [5] and in the assay with Culex pipiens pallens [3] was at least 80% each time.
For the molecule `O=C(NCC1CCOC1)c1cc(CCCc2ccc(Cl)cc2)on1` (stereo not drawn) [(252), N-(tetrahydrofuran-3-ylmethyl)-5-[3-(4-chlorophenyl]propyl) isoxazole-3-carboxamide], the pest or weed control at 0.1 % strength with Blattella germanica [5] and in the assay with Culex pipiens pallens [3] was at least 80% each time. Further, in the assay with Musca domestica [4], the pest or weed control at 500 ppm is at least 90%. In the assay on Culex pipiens pallens [6], the pest or weed control at 3.5 ppm was at least 90%.
As for `Cc1c(C(=O)NCC2CCOC2)noc1CCCc1ccccc1F` (stereo not drawn) [(282), N-(tetrahydrofuran-3-ylmethyl)-4-methyl-5-[3-(2-fluorophenyl)propyl]isoxazole-3-carboxamide], the pest or weed control at 0.1 % strength in the assay with Blattella germanica [5] and with Culex pipiens pallens [3] was at least 80% each time. The molecule also came in with a pest or weed control at 500 ppm in the assay on Musca domestica [4] of at least 90%. Besides, the pest or weed control at 3.5 ppm with Culex pipiens pallens [6] was at least 90%.
For `CC1(CNC(=O)c2cc(COCc3ccccc3)on2)COC1` [(334), N-(3-methyloxetan-3-ylmethyl)-5-benzyloxymethylisoxazole-3-carboxamide], the pest or weed control at 2 % strength in the assay on Blattella germanica [1] and with Musca domestica [2] was at least 80% throughout. Moreover, the pest or weed control at 0.1 % strength with Blattella germanica [5] and with Culex pipiens pallens [3] was at least 80% throughout.
